Read-outs that look alike come from different tables or passages of the source.
How the values were obtained:
[1] = rat, in vivo, po; cited from earlier work
[2] = treatment periods of up to one year; cited from earlier work
[3] = system: Na/K ATPase; details: catalytic cycle of Na/K ATPase; cited from earlier work
[4] = NIDDM patients; cited from earlier work
[5] = dietary; STZ-induced diabetic rats; cited from earlier work
[6] = cited from earlier work
[7] = hypertensive obese non-diabetic women; cited from earlier work
[8] = after 14 weeks, cited from earlier work
[9] = person with Type 2 diabetes; metformin 500 mg b.i.d.; combination after 2 months
[10] = person, Type 2 diabetes; metformin 1000 mg b.i.d.; combination after 3 months
[11] = cited from earlier work; remark: listed apart in the source

For chromium picolinate, the “rate of absorption relative to chromium trichloride” value [1] is listed as “about four times greater than chromium trichloride”.
In the case of `O=S(=O)([O-])[O-].[O]=[V+2]` [vanadyl sulfate], the apparent toxicity [2] is given as “does not appear not to be associated with any apparent toxicity”.
For `[O]=[V]([O-])([O-])[O-]` [vanadate], the “concentration inhibiting formation of EP” value [3] is listed as “less than 1 micromolar”.
In the case of `CC(=O)N[C@@H](CS)C(=O)O` [NAC, N-acetylcysteine], the “reduction of apolipoprotein A1” value [4] is given as “over 20%” and the “development of peripheral neuropathy” value [5] is given as “appeared to inhibit the development of peripheral neuropathy”.
For `Cc1c(C)c2c(c(C)c1O)CC[C@@](C)(CCC[C@H](C)CCC[C@H](C)CCCC(C)C)O2` [vitamin E, free 2R,4′R,8′R-alpha-tocopherol], the non-fatal myocardial infarction ([6]; 400 or 800 I.U. daily, patients with coronary artery disease) is listed as “dramatic and significant reduction of non-fatal myocardial infarction” and the “side effects versus placebo” value ([6]; 400 or 800 I.U.) is listed as “no difference between the alpha-tocopherol treatment (400 or 800 I.U.) or placebo groups for side effects”.
For `CN(C)C(=N)NC(=N)N` [Metformin alone, N,N-dimethylimidodicarbonimidicdiamide], the “blood pressure, plasma insulin, fibrinogen” value [7] is listed as “decreased blood pressure, fasting and glucose-stimulated plasma insulin fibrinogen”, the “reduction of HbA1c” value ([8]; 500 mg daily) is listed as 0.9% and the “reduction of HbA1c” value ([8]; 2000 mg daily) is listed as 2.0%. For the same compound, the Cholesterol [9] was 229, the “Estimated Blood Sugar” value [9] was 200 mg/dL and the “Fasting Blood Sugar” value [9] was 185 mg/dL. For the same compound, the HDL [9] was 52, the “HbA1c level” value [9] was 9.7 and the LDL [9] was 133. The Triglycerides [9] was 220, the HbA1c level [10] was 8.3 and the “HbA1c level after metformin therapy” value ([11]; after 29 weeks, alone or in combination with sulfonylurea, improved from 8.6%) was 7.1%. The “effect on serum lipids” value ([11]; moderately obese Type 2 diabetics) was “lowering mean fasting serum triglycerides, total cholesterol, and LDL cholesterol levels”.

— patent US6852760B1, “Compositions and methods for treatment for glucose metabolism disorders” (Akesis Pharmaceuticals, Inc., priority 1998, dated 2005)
